Patent US8268786B2, “Anti-cancer tocotrienol analogues and associated methods” (First Tech International Limited, priority 2009, dated 2012)
Like-named read-outs stand apart in the source and are kept apart here.

Tests used:
[1] = test system: highly malignant+SA mouse mammary epithelial cell line; test: MTT antiproliferative assay, +SA mouse mammary epithelial cells; assay type: cell-based
Procedure: The antiproliferative effects of Compounds 1-21 were tested using 3-(4,5-dimethylthiazol-2-yl)-2,5-diphenyl tetrasolium bromide (MTT) colorimetric assay utilizing cultures of the highly malignant+SA mouse mammary epithelial cell line maintained on serum-free media and containing 10 ng/mL epidermal growth factor (EGF) and 10 μg/mL insulin as mitogens using 24-well culture plates (6 wells/group) by MTT assay.
Cells were then divided into different treatment groups and given fresh control or treatment media every day. In growth inhibition studies, (IC50), +SA cells were treated with various doses of individual tocotrienol or tocotrienol derivatives for 4 days and then the viable cell number was determined using the MTT assay. Optical density of each sample was read at 570 nm on a microplate reader (SpectraCount, Packard BioScience Company, Meriden, Conn.) against a blank prepared from cell-free cultures. The number of cells/well was calculated against a standard curve prepared by plating various concentrations of cells, as determined by hemocytometer, at the start of each experiment. See McIntyre referenced above.
(§1) For each of the assays performed the compounds were dissolved in aqueous culture media by binding the compounds with bovine serum albumin (BSA).
(§2) An amount of each compound appropriate for the desired final compound concentration was placed in a 1.5 mL screw top glass vial and dissolved in 100 μL of 100% ethanol. Once dissolved, this ethanol/compound solution was added to a small volume of sterile 10% BSA in water and incubated overnight at 37° C. […] Ethanol was added to all treatment media such that the final ethanol concentration was the same in all treatment groups within a given experiment and was always less than 0.1%. Although the examples provided have been described in conjunction with specified amounts of ethanol and other compounds it should be understood that the invention is applicable to embodiments not having those limited concentration.

[2] = test system: ER-positive human breast cancer cells MCF7; test: MTT antiproliferative assay, MCF7 cells; assay type: cell-based; details: for IC50: Homo sapiens
Procedure: as §1, §2
(§3) The cell growth of MCF7 (Example 24) and MDA-MB-231 (Example 25) cell lines was measured using the MTT assay procedures described above and an MTT assay kit (TACS™, Trevogen®, Inc., Gaithersburg, Md.). After passing the cells for 3-4 times, growing cells were incubated in a 96-well plate at a density of 8×10^3 cells per well, and allowed to attach for 24 hours. Complete growth medium was then replaced with 100 μL of RPMI serum free medium (GIBCO-Invitrogen, NY) containing various doses (20, 10, 5, 2 μM) of the tested compound and the culture continued at 37° C. under 5% CO2. After 96 hours, the incubated cells were treated with MTT solution (10 μL/well) at 37° C. for 4 hours. The color reaction was stopped by the addition of solubilization/stop solution (100 μL/well). The cells continued to be incubated at 37° C. to completely dissolve the formazan product. Absorbance of the samples was determined at 570 nm with an ELISA plate reader (BioTek, VT). Absorbance readings were converted to estimated cell numbers based on a standard curve prepared by plating various concentration of cells, as determined by hemocytometer, and measuring the absorbance of those cells at the start of each experiment. The IC50 value of each compound was calculated using nonlinear regression (curve fit) of log concentration versus the number of cells/well implemented using GraphPad Prism 5.0 program. The procedure was identical for both human breast cancer cell lines MCF7 and MDA-MB-231.

[3] = test system: ER-negative human breast cancer cells MDA-MB-231; test: MTT antiproliferative assay, MDA-MB-231 cells; assay type: cell-based; details: for IC50: Homo sapiens
Procedure: as §1, §2, §3

[4] = test system: highly metastatic breast cancer cell line MDA-MB-231; test: BME Cell Invasion Assay (Boyden chamber, calcein-AM); assay type: cell-based, human; details: MDA-MB-231, 5 μM
Procedure: Anti-Invasion Assays were performed to measure the anti-invasive properties of Compounds 1-21 using a 96 well basement membrane extract “BME” Cell Invasion Assay (Cultrex®, Trevogen, Catalog# 3455-096-K) with the highly metastatic breast cancer cell line MDA-MB-231. This assay employs a simplified Boyden Chamber design with a polyethylene terephthalate membrane (8 μm). Detection of cell invasion is quantified using calcein-AM. Cells internalize calcein-AM and intracellular esterases cleave the acetomethylester moiety to generate free calcein. Free calcein fluoresces brightly, and this fluorescence may be used to quantify the number of cells that have invaded across BME. (See Tamilarasan and Borghesani, referenced above)
About […] of basement membrane extract (BME, 1×) coat was added per well. After overnight incubation at 37° C. in a 5% CO2 incubator, 50,000/50 μL of MDA-MB-231 cells in serum free RPMI medium were added to the top chamber of each well, which contained the tested compound at a treatment concentration of 5 μM. About 150 μL of RPMI medium was added to the lower chamber, which contained 10% fetal bovine serum, penicillin/streptomycin, and fibronectin (1 μL/mL) and N-formyl-met-leu-phe (10 nM) as chemoattractants. Cells were allowed to migrate to the lower chamber at 37° C. in a CO2 incubator. After 24 h, the top and bottom chambers were aspirated and washed with a washing buffer solution. About 100 μL of cell dissociation solution/Calcein-AM solution was added to the bottom chamber and incubated for 1 hour at 37° C. in a CO2 incubator. The cells internalized calcein-AM, and the intracellular esterases cleaved the acetomethylester (AM) moiety to generate free calcein. Fluorescence of the samples was determined at 485 nm excitation; 520 nm emissions were measured using a plate reader (BioTek, VT). The numbers of cells that invaded through the BME coat were calculated using a standard curve.
Differences among the various treatment groups were determined by analysis of variance (ANOVA) followed by Dunnett's t-test. Differences were considered to be statistically significant at a value of <0.05, as compared to vehicle treated controls.

[5] = MCF7, 96 h, read-out: MCF7 IC50 μM
[6] = MDA-MB-231, 96 h, read-out: MDA-MB-231 IC50 μM

| SMILES | activity relative to parent γ-tocotrienol (2) ([1]; +SA cells, versus Compound 2) [fold] | IC50 ([1]; Mus musculus, +SA cell, 96 h) [µM] | IC50 [2, 5] [µM] | IC50 ([2]; MCF7, read-out: IC50 values (range)) [µM] | potency relative to parent natural tocotrienol ([2]; MCF7, 4 and 10 versus Compound 1, 8 versus Compound 2) [fold] | IC50 [3, 6] [µM] | antiproliferative activity (in words) ([1]; +SA cells) | IC50 ([3]; MDA-MB-231, read-out: IC50 (range)) [µM] | antiproliferative activity (in words) ([3]; MDA-MB-231) | anti-invasive activity (in words) [4] |
| --- | --- | --- | --- | --- | --- | --- | --- | --- | --- | --- |
| CC(C)=CCC/C(C)=C/CC/C(C)=C/CC[C@]1(C)CCc2cc(OC(=O)NS(=O)(=O)c3ccc(C)cc3)c(C)c(C)c2O1 [Compound 8, (R)-2,7,8-trimethyl-2-((3E,7E)-4,8,12-trimethyltrideca-3,7,11-trienyl)chroman-6-yl tosylcarbamate] | ~2 | 2 | 5.1 | 5 to 10 | ~3 | > 10 | – | – | – | – |
| CC(C)=CCC/C(C)=C/CC/C(C)=C/CC[C@]1(C)CCc2cc(OC(=O)NS(=O)(=O)c3ccc(C)cc3)cc(C)c2O1 [Compound 9, (R)-2,8-dimethyl-2-((3E,7E)-4,8,12-trimethyltrideca-3,7,11-trienyl)chroman-6-yl tosylcarbamate] | – | – | > 10 | – | – | 6.6 | activity better than that of its parent tocotrienol | 5 to 10 | improved activities | more active than their natural tocotrienol parent compounds |
